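All cell lines were grown in 96-well plates and treated with compound for 48 hours. GI50 = concentration required for 50% inhibition of growth.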 Calls of active or inactive are those of the source. Cut-off read from the data, not from the text of the source: active = GI50 up to about 1.1 µM and inactive = higher.
Legend:
Experiment in all cases: NCI anticancer screen, dose series, 48 h
SNB-78 = test system: SNB-78
NCI-H226 = test system: NCI-H226
OVCAR-4 = test system: OVCAR-4
NCI-H460 = test system: NCI-H460
OVCAR-5 = test system: OVCAR-5
786-0 = test system: 786-0
OVCAR-8 = test system: OVCAR-8
K562 = test system: K562
Malme-3M = test system: Malme-3M
SF-295 = test system: SF-295
U-251 = test system: U-251
UO-31 = test system: UO-31
HT-29 = test system: HT-29
SK-MEL-28 = test system: SK-MEL-28
SNB-75 = test system: SNB-75
A498 = test system: A498
LOX IMVI = test system: LOX IMVI
HOP-92 = test system: HOP-92

Measured: GI50

O=P1(c2ccccc2)CCCCC1
inactive: SNB-78 > 100 µM | NCI-H226 > 100 µM | OVCAR-4 > 100 µM | NCI-H460 > 100 µM | OVCAR-5 > 100 µM | 786-0 > 100 µM | OVCAR-8 > 100 µM | K562 > 100 µM | Malme-3M > 100 µM | SF-295 > 100 µM | U-251 > 100 µM | UO-31 > 100 µM | HT-29 > 100 µM | SK-MEL-28 > 100 µM | SNB-75 > 100 µM | A498 > 100 µM | LOX IMVI > 100 µM

CC1CC#CCOC(=O)CCCC1=O (stereo not given)
inactive: SNB-78 > 100 µM | NCI-H226 > 100 µM | OVCAR-4 > 100 µM | NCI-H460 > 100 µM | 786-0 > 100 µM | OVCAR-8 > 100 µM | K562 > 100 µM | SF-295 > 100 µM | U-251 > 100 µM | HT-29 > 100 µM | SK-MEL-28 > 100 µM | SNB-75 > 100 µM | LOX IMVI > 100 µM

CC1(C)CCCC2(C)[C@@H]1CC[C@@]13CC(=O)[C@@](C)(CC[C@@H]21)C3 (stereo not given in full)
inactive: SNB-78 > 100 µM | NCI-H226 83.4 µM | OVCAR-4 87.9 µM | NCI-H460 42.1 µM | OVCAR-5 > 100 µM | 786-0 > 100 µM | OVCAR-8 85.7 µM | K562 > 100 µM | Malme-3M > 100 µM | SF-295 > 100 µM | U-251 49 µM | UO-31 > 100 µM | HT-29 30 µM | SK-MEL-28 > 100 µM | SNB-75 > 100 µM | HOP-92 > 100 µM | LOX IMVI 39.4 µM

CCCCCCCCCCCc1nnc(N)o1
inactive: SNB-78 > 100 µM | NCI-H226 > 100 µM | OVCAR-4 65.2 µM | NCI-H460 > 100 µM | OVCAR-5 > 100 µM | 786-0 > 100 µM | OVCAR-8 > 100 µM | K562 51.5 µM | Malme-3M > 100 µM | SF-295 > 100 µM | U-251 > 100 µM | UO-31 13.6 µM | HT-29 > 100 µM | SK-MEL-28 > 100 µM | SNB-75 > 100 µM | HOP-92 > 100 µM | LOX IMVI > 100 µM

O=C1/C(=C/c2ccc3c(c2)OCCO3)CCC/C1=C\c1ccc2c(c1)OCCO2
inactive: SNB-78 26.8 µM | OVCAR-4 21.1 µM | NCI-H460 22.8 µM | OVCAR-5 32.9 µM | 786-0 22.9 µM | OVCAR-8 15.9 µM | Malme-3M 29 µM | SF-295 17 µM | U-251 14.2 µM | UO-31 82.4 µM | HT-29 6.9 µM | SK-MEL-28 24.3 µM | SNB-75 24.9 µM | HOP-92 32.1 µM | A498 27.7 µM | LOX IMVI 8.41 µM

Cc1ccc2nc3c(Cl)cc(=O)cc-3sc2c1
inactive: SNB-78 39.2 µM | NCI-H226 27.2 µM | OVCAR-4 16.1 µM | NCI-H460 29.4 µM | OVCAR-5 > 10 µM | 786-0 19.8 µM | OVCAR-8 21.2 µM | K562 17.6 µM | Malme-3M 30 µM | SF-295 25.8 µM | U-251 20.7 µM | UO-31 34 µM | HT-29 29.4 µM | SK-MEL-28 35 µM | SNB-75 21.5 µM | HOP-92 21.8 µM

C/C(CC(=O)CCCC(=O)Nc1ccc(Cl)cc1Cl)=N/NC(=O)CC#N
inactive: SNB-78 > 100 µM | NCI-H226 > 100 µM | OVCAR-4 > 100 µM | NCI-H460 > 100 µM | OVCAR-5 > 100 µM | 786-0 > 100 µM | OVCAR-8 > 100 µM | K562 > 100 µM | Malme-3M > 100 µM | SF-295 > 100 µM | U-251 > 100 µM | UO-31 > 100 µM | HT-29 > 100 µM | SK-MEL-28 > 100 µM | SNB-75 > 100 µM | A498 > 100 µM | LOX IMVI > 100 µM

COc1cc(C(=O)C/C(CCC(=O)Nc2ccccc2[N+](=O)[O-])=N\NC(=O)C(N)=O)ccc1O
inactive: SNB-78 > 100 µM | NCI-H226 > 100 µM | OVCAR-4 > 100 µM | NCI-H460 > 100 µM | OVCAR-5 > 100 µM | 786-0 > 100 µM | OVCAR-8 > 100 µM | K562 > 100 µM | SF-295 > 100 µM | U-251 > 100 µM | UO-31 > 100 µM | HT-29 > 100 µM | SK-MEL-28 > 100 µM | HOP-92 65.3 µM | LOX IMVI > 100 µM

OC12c3ccccc3C1(N1CCOCC1)CCCCC21OCCCO1 (stereo not given)
inactive: SNB-78 > 100 µM | NCI-H226 > 100 µM | OVCAR-4 > 100 µM | NCI-H460 > 100 µM | OVCAR-5 > 100 µM | 786-0 > 100 µM | OVCAR-8 > 100 µM | K562 > 100 µM | Malme-3M > 100 µM | SF-295 > 100 µM | U-251 > 100 µM | HT-29 > 100 µM | SK-MEL-28 > 100 µM | SNB-75 > 100 µM | A498 > 100 µM | LOX IMVI > 100 µM

N=C(CC(=O)Nc1ccc(Cl)cc1)Nc1ccccc1
inactive: SNB-78 > 100 µM | NCI-H226 > 100 µM | OVCAR-4 > 100 µM | NCI-H460 > 100 µM | OVCAR-5 > 100 µM | 786-0 > 100 µM | OVCAR-8 > 100 µM | K562 > 100 µM | Malme-3M > 100 µM | SF-295 > 100 µM | U-251 > 100 µM | UO-31 > 100 µM | HT-29 > 100 µM | SK-MEL-28 > 100 µM | SNB-75 > 100 µM | A498 > 100 µM | LOX IMVI > 100 µM

O=C(O)c1ccc2c(c1)C(=O)N(c1ccc(S(=O)(=O)c3ccc(N4C(=O)c5ccc(C(=O)O)cc5C4=O)cc3)cc1)C2=O
inactive: SNB-78 > 100 µM | NCI-H226 > 100 µM | OVCAR-4 > 100 µM | NCI-H460 > 100 µM | OVCAR-5 > 100 µM | 786-0 > 100 µM | OVCAR-8 > 100 µM | K562 > 100 µM | Malme-3M > 100 µM | SF-295 > 100 µM | U-251 > 100 µM | UO-31 > 100 µM | HT-29 > 100 µM | SK-MEL-28 > 100 µM | SNB-75 > 100 µM | A498 > 100 µM | LOX IMVI > 100 µM

CCOc1ccccc1NC(=O)CSc1nnc(Cc2ccccc2)o1
inactive: SNB-78 81.5 µM | NCI-H226 25.2 µM | OVCAR-4 26.4 µM | NCI-H460 20.2 µM | OVCAR-5 66.1 µM | 786-0 17.9 µM | OVCAR-8 27 µM | K562 54.8 µM | Malme-3M 15.6 µM | SF-295 98.4 µM | U-251 20.2 µM | UO-31 23.9 µM | HT-29 35.3 µM | SK-MEL-28 71.4 µM | SNB-75 56.1 µM | A498 66.7 µM | LOX IMVI 15.5 µM
